As usually defined, the pKa is the negative logarithm of the acid dissociation constant.

With `Cc1ccc(S(=O)C(C)(C)C)cc1` (centres undefined), the pKa (basic group) is -2.2.

`CCCCCCCC(=O)N[C@H]1C(=O)N2[C@H]1SC(C)(C)[C@H]2C(=O)O` returned a pKa (acidic group) of 2.66. Where the note is “basic group”, `COCCNc1ccccc1` displayed a pKa of 4.05. Take `Cc1ncc(CO)c(C[NH3+])c1O`: the pKa (acidic group) was 8.02 and the pKa (basic group) stood at 3.38. In the case of `O=C1COC(=O)C1I` (centres undefined), the pKa (acidic group) came out at 2.31. On the same count and under the same terms, as for `CC(=O)Nc1nnc(-c2ccccc2)s1`, the figure is 8.9. Where the note is “basic group”, `CCN(C)CC` had a pKa of 10.4. The same measure, in the same setting: to `[NH3+]c1cccc(-c2nc3ccccc3s2)c1` belongs 0.07. For the setting “acidic group”, `O=C(O)C(=O)/C=C/c1ccccc1` yielded a pKa of 1.97. The compound `Cc1n[nH]c2c(Nc3ccccc3)ncnc12` gave a pKa (basic group) of 4.61.

The compound `O=C([O-])CN=C1CCCCC1` had a pKa (basic group) of 9.48. Still for that read-out and setting: as for `O=C1CCc2ccccc2C1`, the figure is 12.8; as for `CC/C(N)=N/O`, 5.95.

With `CC#C/C=C/C(=O)O`, the pKa (acidic group) came to 4.2. Same read-out and setting: to `Cc1cccc2c1C(=O)NC2=O` belongs 10.5.

As to `COc1ccc2c(c1)nnn2O`, under “acidic group”, the pKa amounted to 5.07. The same measure, in the same setting: as for `O=C1CCCC(=O)N1O`, the figure is 7.6.

Regarding `Nc1cccc(N)c1O`, the pKa (acidic group) amounted to 10.5 and the pKa (basic group) turned out to be 5.5.

In turn, `NCCCc1ccccc1O` had a pKa (basic group) of 9.51. Same read-out and setting: as for `CNc1nc(NC)c2cn[nH]c2n1`, the figure is 6.08. `CC(/N=N/O)c1ccccc1` (centres undefined): the pKa (acidic group) was 8.32. Regarding `Cc1c(Cn2ccnc2)sc2cc(C(=O)[O-])ccc12`, for the setting “basic group”, the pKa came out at 6.04.

`CCOc1ccccc1N`: the pKa (basic group) was 4.51. In the case of `c1ccc2c(c1)CNCCC[NH2+]Cc1ccccc1OCCO2`, for the setting “basic group”, the pKa was 7.82. On the same count and under the same terms, to `CNNC1CC[NH+](C)CC1` belongs 5.95. For the compound `CCCOc1ccc(C(=O)O)cc1`, the pKa (acidic group) is 4.63. Regarding `CC(C)CCOc1ccccc1/C=C/C(=O)O`, for the setting “acidic group”, the pKa was found to be 4.85.

`c1cnc2c(c1)ccc1c3c(cnc12)CCCC3` returned a pKa (basic group) of 5.66.

The compound `C[N+](C)(C)c1cccc(O)c1` showed a pKa (acidic group) of 8.07. Still for that read-out and setting: to `O=C(O)CCCc1ccccc1` belongs 4.78. For `C#CC(C)(C)N(C)C(C)(C)C`, the pKa (basic group) is 9.3. As for `O=C(O)c1ccsc1`, under “acidic group”, the pKa was 4.03. For the setting “acidic group”, `CC(I)C(=O)O` (centres undefined) came in with a pKa of 3.21.

Regarding `CN(C)c1cccc2ccccc12`, under “basic group”, the pKa was found to be 4.83. Compound `Sc1cccc2ccc[nH+]c12` showed a pKa (acidic group) of 2.05. Regarding `CCOC(=O)c1cnc(N(C)C)s1`, for the setting “basic group”, the pKa turned out to be 2.77. `NNC(=O)c1ccccn1`: the pKa is 11.8 (acidic group) and 2.86 (basic group).

With `OCc1ccc(O)cc1`, the pKa (acidic group) was 9.82. Still for that read-out and setting: as for `Oc1ccc2cn[nH]c2c1`, the figure is 9.35; as for `C[N+](C)(C)CCCc1ccc(O)cc1`, 9.8. `CC(C)/N=C/N(C)c1ccc(-c2c[nH]cn2)cc1`: the pKa (basic group) was determined as 10.4. With `C[Si](C)(C)CC(=O)O`, the pKa (acidic group) stood at 5.22. In turn, `CC1CCCC(C(=O)[O-])N1` (centres undefined) came in with a pKa (basic group) of 10.4. `O=C1CCC(Cl)C1=O` (centres undefined) had a pKa (acidic group) of 7.05. Same read-out and setting: to `Cc1cc(/N=N/c2ccc(S(N)(=O)=O)cc2)cc(C(=O)O)c1O` belongs 2.25; to `[O-]c1ccccc1-c1ccccc1O`, 14.7; to `O=C(O)c1[nH]c2ccccc2[nH+]1`, 0.4.

Under “basic group”, `CC1(C)[C@@H](N)[C@@H]1N` had a pKa of 8.96. Same read-out and setting: to `NC(=O)CCCCc1ccccn1` belongs 5.73.

`CC(C)(C)CCCC(=O)O` came in with a pKa (acidic group) of 4.88.

For the compound `CSc1ccc(N)cc1`, for the setting “basic group”, the pKa was found to be 4.4. Same read-out and setting: as for `Cn1ccnc1N=[N+]=[N-]`, the figure is 4.05. Take `Nc1nc(N)c2[nH]c(N)nc2n1`: the pKa was 10.8 (acidic group) and 6.23 (basic group). Compound `Cc1cccc(C(C)[N+](=O)[O-])c1` (centres undefined) displayed a pKa (acidic group) of 7.49. As for `CN(C)c1ccc(/N=N/c2ccccc2)cc1`, for the setting “basic group”, the pKa came out at 2.85. The compound `Cc1nc2ccccc2[nH+]c1O` yielded a pKa (acidic group) of 0.48. For `CC[NH+](CC)Cc1c(O)cccc1Cl`, the pKa (acidic group) was 7.5.

`Cn1ncc2c(Nc3ccccc3)ncnc21` came in with a pKa (basic group) of 3.53. Compound `C[C@@H]1CCC[C@H](C)N1CC(C)(C)O` yielded a pKa (basic group) of 10.7. Compound `COC(=O)C1CCCN(C)C1` (centres undefined) came in with a pKa (basic group) of 8.45. Compound `C[NH+](C)Cc1cc([N+](=O)[O-])ccc1O` gave a pKa (acidic group) of 5.75. The same measure, in the same setting: to `O/N=C/C(Cl)=N\O` belongs 8.24. `c1ccc2c(c1)C1CCN2C1` (centres undefined) came in with a pKa (basic group) of 7.1.

For the setting “acidic group”, `O=C(O)[C@@H]1CCC[NH2+]1` had a pKa of 1.94.

Consider `O=[N+]([O-])c1cccc(O)c1`, for which, under “acidic group”, the pKa was 8.31.

Where the note is “basic group”, `[O-]c1ccnc([O-])c1` registered a pKa of 13. Compound `Cc1ccccc1C(=N)c1ccccc1` registered a pKa (basic group) of 7.21. `C[Si](C)(C)c1cccc(C(=O)O)c1`: where the note is “acidic group”, the pKa was determined as 4.24.

`CCCCN[N+](=O)[O-]` returned a pKa (acidic group) of 6.48. In the case of `CC(=O)C1C(=O)c2ccccc2C1=O`, the pKa (basic group) is 2.88.

The values are drawn from the pKa sets of Baltruschat and Czodrowski (2020).
